Test results published in patent US11088380B2, “Electrolyte solution for redox flow battery and redox flow battery comprising same” (Seoul National University R&DB Foundation, priority 2013, dated 2021).
In brackets after ≈: the same amount, converted by molar mass.

Assay: Maximum solubility in propylene carbonate solution comprising tetrafluoroborate tetraethylammonium
Procedure: Menadione purchased from Sigma Aldrich was dissolved in propylene carbonate solution comprising tetrafluoroborate tetraethylammonium and the maximum amount of Menadione that can be dissolved was checked.
1,4-Naphthoquinone purchased from Sigma Aldrich was dissolved in propylene carbonate solution comprising tetrafluoroborate tetraethylammonium and the maximum amount of 1,4-Naphthoquinone that can be dissolved was checked.
N,N,N′N′-tetramethyl-p-phenylenediamine purchased from Alfa aesar was dissolved in propylene carbonate solution comprising tetrafluoroborate tetraethylammonium and the maximum amount of N,N,N′N′-tetramethyl-p-phenylenediamine that can be dissolved was checked.
Tetrathiafulvalene purchased from Sigma Aldrich was dissolved in propylene carbonate solution comprising tetrafluoroborate tetraethylammonium and the maximum amount of tetrathiafulvalene that can be dissolved was checked.
N,N-dimethyl-p-phenylenediamine purchased from Sigma Aldrich was dissolved in propylene carbonate solution comprising tetrafluoroborate tetraethylammonium and the maximum amount of N,N-dimethyl-p-phenylenediamine that can be dissolved was checked.
Triphenylamine purchased from Sigma Aldrich was dissolved in propylene carbonate solution comprising tetrafluoroborate tetraethylammonium and the maximum amount of triphenylamine that can be dissolved was checked.
4-Hydroxydiphenylamine purchased from Sigma Aldrich was dissolved in propylene carbonate solution comprising tetrafluoroborate tetraethylammonium and the maximum amount of 4-hydroxydiphenylamine that can be dissolved was checked.
4-Amino-diphenylamine purchased from Sigma Aldrich was dissolved in propylene carbonate solution comprising tetrafluoroborate tetraethylammonium and the maximum amount of 4-amino-diphenylamine that can be dissolved was checked.
Thianthrene purchased from Aldrich was dissolved in propylene carbonate solution comprising tetrafluoroborate tetraethylammonium and the maximum amount of thianthrene that can be dissolved was checked.

[1] = maximum amount dissolved in propylene carbonate solution comprising tetrafluoroborate tetraethylammonium
[2] = organic solvent or mixture, thermodynamic from solid

Row | solubility [2] [mM] | Structure (SMILES) | other results
1 | 100 (≈ 21.6 mg/mL) | c1ccc2c(c1)Sc1ccccc1S2 [Comparative example 2, Thianthrene, reference compound] | 
2 | < 100 | c1ccc(N(c2ccccc2)c2ccccc2)cc1 [Example 7, Triphenylamine] | 
3 | 300 (≈ 51.7 mg/mL) | CC1=CC(=O)c2ccccc2C1=O [Example 2, menadione] | 

Further lines, the compound ahead of its results:

Row | Structure (SMILES) | solubility [2] [mM] | other results
4 | Oc1ccc(Nc2ccccc2)cc1 [Example 8, 4-hydroxydiphenylamine] |  | solubility [1]: 4000 mM (≈ 741 mg/mL)
5 | C1=CSC(=C2SC=CS2)S1 [Example 5, Tetrathiafulvalene] |  | solubility: 600 mM (≈ 123 mg/mL)
6 | CN(C)c1ccc(N(C)C)cc1 [Example 4, N,N,N′N′-tetramethyl-p-phenylenediamine] |  | solubility [1]: 2000 mM (≈ 329 mg/mL)
7 | CN(C)c1ccc(N)cc1 [Example 6, N,N-dimethyl-p-phenylenediamine] | 2000 (≈ 272 mg/mL) | 
8 | O=C1C=CC(=O)c2ccccc21 [Example 3, 1,4-Naphthoquinone] | 500 (≈ 79.1 mg/mL) | 
9 | Nc1ccc(Nc2ccccc2)cc1 [Example 9, 4-amino-diphenylamine] |  | solubility: 4000 mM (≈ 737 mg/mL)
